Laboratory results published in paper PMC7238409, “Interactions of TiO2 Nanoparticles with Ingredients from Modern Lifestyle Products and Their Effects on Human Skin Cells” (Chemical Research in Toxicology, 2020).
Read-outs that look alike come from different tables or passages of the source.

How the values were obtained:
[1] = Nanoparticle tracking analysis (NTA) of TiO2 NPs after incubation with MLP ingredients; format: physicochemical; settings: 0.1 mg/mL TiO2 NPs + 0.1 mg/mL MLP ingredient, 60 min, diluted 1:100 in water
nNHDF cells [2] = experiment: Annexin V/Propidiumiodide apoptosis/necrosis assay, flow cytometry; format: cell-based, human
nNHDF cells [3] = experiment: Neutral Red Uptake (NRU) assay, lysosomal integrity; format: cell-based, human; settings: 24 h, absence of TiO2 NPs (control)
nNHDF cells [4] = experiment: Reactive oxygen species assay (DCFDA) with side scatter signal (SSC), flow cytometry; settings: concentrations of Table 1, with or without 100 μg/mL TiO2 NPs; H2O2 100 μM
nNHDF cells [5] = experiment: Glutathione assay (total glutathione and GSSG, Tietze method); format: cell-based, human; settings: 4 h, concentrations of Table 1, absence of TiO2 NPs
Description: Intracellular total and oxidized glutathione was determined by the earlier published Tietze method,[33] which was adapted to microtiter plates. Briefly, cells were lysed in 200 μL of 1% (w/v) sulfosalicylic acid (SSA), and 10 μL of the lysates were diluted with 90 μL of H2O and subsequently mixed with 100 μL of a reaction mixture containing 0.3 mM DTNB, 0.4 mM NADPH, 1 mM EDTA, and 1 U/mL glutathione reductase in 0.1 mM sodium phosphate buffer, pH = 7.5. The absorbance at 405 nm was continuously recorded over a time frame of 10 min. Glutathione concentrations were determined by comparing the increase in absorption of samples with the increase in absorption of standards with known concentrations. In order to determine the amount of oxidized glutathione (glutathione disulfide, GSSG), the samples were pretreated with 2-vinylpyridine (2-VP). The sample (cell lysate in SSA, 130 μL) was mixed with 5 μL of 2-VP, and the pH was subsequently adjusted to 6 using 0.2 M Tris-solution. Samples were incubated at room temperature for 60 min, and then 10 μL of the samples were assayed for glutathione, as described above.
Cellular protein contents were determined after lysis of the cells in 200 μL of 0.5 M NaOH according to the Lowry method[34] using bovine serum albumin as a standard.

nNHDF cells [6] = experiment: CellTiter-Blue (CTB) assay, metabolic activity; settings: 24 h
[7] = read-out: EC50, metabolic activity, control, nNHDF cells, absence of TiO2 NPs (control)

In the case of `CCCCOC(=O)c1ccc(O)cc1` [BP, butyl parabene], the “# of particles (TiO2 NPs detectable)” value [1] is reported as 748 ± 137 × 10^6, the “particle diameter of TiO2 NPs, D50” value [1] is reported as 122 ± 12 nm and the “particle diameter of TiO2 NPs, mean” value [1] is reported as 136 ± 18 nm. For the same compound, the “particle diameter of TiO2 NPs, mode” value [1] was 111 ± 19 nm, the “amount of viable cells” value (nNHDF cells [2]) was 79.8% and the “quadrant number lower left (viable cells), PI / Annexin V plot” value (nNHDF cells [2]) was 92.9. The “quadrant number lower right, PI / Annexin V plot” value (nNHDF cells [2]) was 3.13, the “quadrant number upper left, PI / Annexin V plot” value (nNHDF cells [2]) was 2.57 and the “quadrant number upper right, PI / Annexin V plot” value (nNHDF cells [2]) was 1.38. The EC50 (nNHDF cells [3]) was 690 ± 420 µM.

With `CCOC(=O)c1ccc(O)cc1` [EP, ethyl parabene] the “# of particles (TiO2 NPs detectable)” value [1] was 764 ± 92 × 10^6, the “particle diameter of TiO2 NPs, D50” value [1] was 122 ± 2 nm and the “particle diameter of TiO2 NPs, mean” value [1] was 132 ± 5 nm. The “particle diameter of TiO2 NPs, mode” value [1] was 105 ± 8 nm, the “quadrant number lower left (viable cells), PI / Annexin V plot” value (nNHDF cells [2]) was 90.0 and the “quadrant number lower right, PI / Annexin V plot” value (nNHDF cells [2]) was 6.57. For the same compound, the “quadrant number upper left, PI / Annexin V plot” value (nNHDF cells [2]) was 1.97, the “quadrant number upper right, PI / Annexin V plot” value (nNHDF cells [2]) was 1.47 and the EC50 (nNHDF cells [3]) was 3540 ± 860 µM.

With `OO` [H2O2, Hydrogen peroxide, reference compound] the “DCFDA signal (ROS)” value (nNHDF cells [4]) was “slight but significant increase in the DCFDA signal” and the “total cellular glutathione content” value (nNHDF cells [5]) was “lowered significantly”.

In the case of `O=C1C=C(O)C(=O)c2ccccc21` [HNQ, 2-hydroxy-1,4-naphtoquinone], the “# of particles (TiO2 NPs detectable)” value [1] is reported as 498 ± 380 × 10^6, the “particle diameter of TiO2 NPs, D50” value [1] is reported as 141 ± 20 nm and the “particle diameter of TiO2 NPs, mean” value [1] is reported as 154 ± 14 nm. The “particle diameter of TiO2 NPs, mode” value [1] was 117 ± 18 nm, the “DCFDA signal (ROS)” value (nNHDF cells [4]) was “decreased the amount of detectable ROS significantly” and the “quadrant number lower left (viable cells), PI / Annexin V plot” value (nNHDF cells [2]) was 89.5. For the same compound, the “quadrant number lower right, PI / Annexin V plot” value (nNHDF cells [2]) was 4.56, the “quadrant number upper left, PI / Annexin V plot” value (nNHDF cells [2]) was 3.31 and the “quadrant number upper right, PI / Annexin V plot” value (nNHDF cells [2]) was 2.61.

In the case of `CC(C=O)Cc1ccc(C(C)(C)C)cc1` (stereo not shown) [Lilial, 3-(4-tert-butylphenyl)-2-methylpropanal], the “# of particles (TiO2 NPs detectable)” value [1] is reported as 552 ± 248 × 10^6, the “particle diameter of TiO2 NPs, D50” value [1] is reported as 127 ± 6 nm and the “particle diameter of TiO2 NPs, mean” value [1] is reported as 136 ± 5 nm. The “particle diameter of TiO2 NPs, mode” value [1] was 117 ± 11 nm, the EC50 (nNHDF cells [6]; Homo sapiens, read-out: EC50, metabolic activity, control) was 230 ± 50 µM and the “quadrant number lower left (viable cells), PI / Annexin V plot” value (nNHDF cells [2]; human, 24 h) was 94.2. The “quadrant number lower right, PI / Annexin V plot” value (nNHDF cells [2]; human, 24 h) was 1.60, the “quadrant number upper left, PI / Annexin V plot” value (nNHDF cells [2]; human, 24 h) was 3.26 and the “quadrant number upper right, PI / Annexin V plot” value (nNHDF cells [2]; human, 24 h) was 0.94. The EC50 (nNHDF cells [3]; Homo sapiens) was 270 ± 70 µM.

For `COC(=O)c1ccc(O)cc1` [MP, methyl parabene], the “# of particles (TiO2 NPs detectable)” value [1] was 927 ± 146 × 10^6, the “particle diameter of TiO2 NPs, D50” value [1] was 122 ± 1 nm and the “particle diameter of TiO2 NPs, mean” value [1] was 131 ± 2 nm. For the same compound, the “particle diameter of TiO2 NPs, mode” value [1] was 106 ± 5 nm, the “quadrant number lower right, PI / Annexin V plot” value (nNHDF cells [2]) was 6.31 and the “quadrant number upper left, PI / Annexin V plot” value (nNHDF cells [2]) was 2.69. For the same compound, the “quadrant number upper right, PI / Annexin V plot” value (nNHDF cells [2]) was 1.42.

With `CCCOC(=O)c1ccc(O)cc1` [PP, propyl parabene] the “# of particles (TiO2 NPs detectable)” value [1] was 612 ± 210 × 10^6, the “particle diameter of TiO2 NPs, D50” value [1] was 119 ± 2 nm and the “particle diameter of TiO2 NPs, mean” value [1] was 126 ± 1 nm. For the same compound, the “particle diameter of TiO2 NPs, mode” value [1] was 103 ± 5 nm, the EC50 (nNHDF cells [6]; [7]) was 1040 ± 20 µM and the “quadrant number lower left (viable cells), PI / Annexin V plot” value (nNHDF cells [2]) was 91.2. For the same compound, the “quadrant number lower right, PI / Annexin V plot” value (nNHDF cells [2]) was 4.55, the “quadrant number upper left, PI / Annexin V plot” value (nNHDF cells [2]) was 2.46 and the “quadrant number upper right, PI / Annexin V plot” value (nNHDF cells [2]) was 1.77. The EC50 (nNHDF cells [3]) was 1270 ± 340 µM and the “total cellular glutathione content” value (nNHDF cells [5]) was “significantly lower total cellular glutathione content”.

With `Nc1ccc(N)cc1` [PPD, para-phenylenediamine] the “# of particles (TiO2 NPs detectable)” value [1] was 1833 ± 93 × 10^6, the “particle diameter of TiO2 NPs, D50” value [1] was 129 ± 17 nm and the “particle diameter of TiO2 NPs, mean” value [1] was 138 ± 19 nm. For the same compound, the “particle diameter of TiO2 NPs, mode” value [1] was 122 ± 14 nm, the “DCFDA signal (ROS)” value (nNHDF cells [4]) was “decreased the amount of detectable ROS significantly” and the EC50 (nNHDF cells [6]; read-out: EC50 (cytotoxicity, end point not given), nNHDF cells, discussion) was roughly 1000 µM. The EC50 (nNHDF cells [6]; [7]) was 1190 ± 170 µM, the “PI fluorescence (necrosis) compared to the control” value (nNHDF cells [2]; 24 h, concentrations of Table 1, together with 100 μg/mL TiO2 NPs) was “significant difference in PI fluorescence” and the EC50 (nNHDF cells [3]) was 1360 ± 50 µM.
